Source: patent publication US7399460B2, “Metal complexes derivatized with folate for use in diagnostic and therapeutic applications” (Bracco International B.V., priority 1998, dated 2008)

How the values were obtained:
MA104 cells = conditions: cited from earlier work
JAR tumors = assay: Biodistribution at MRI dose level in nude mice with subcutaneous JAR tumors; conditions: 60 min, 79.2 μmol/kg dose
Description: Biodistribution studies were performed using female nu/nu mice implanted with subcutaneous JAR tumors using the general procedures described in the example above. Animals were sacrificed 60 min post IV injection of an “MRI” dose level (0.1 mmol/kg) of ^153Gd/Gd-DO3A-APA-(α)-folate, ^153Gd/Gd-DO3A-APA-(γ)-folate or Bis(^153Gd/Gd-DO3A-APA)folate and selected organs were removed, weighed, and assayed for radioactivity, in order to determine the % injected dose/g-tissue (% ID/g) in the tumors.

[1] = biological target: T1, folate binding protein on the KB cells (Homo sapiens, UniProt P15328); assay: Binding of alpha and gamma isomers of ^99mTc-oxa-folate to KB cells at 4° C.; conditions: 30 min; for competition with native folate for folate binding protein on KB cells: plus 250-260 pmol cold native folate, 4° C. (FIG. 4, white bars); for binding to KB cells relative to that observed with 10 pmol of ^3H-folate: trace amounts (~0.5 μCi), 4° C., no cold folate (FIG. 4, dark bars)
T1 construct: host or cells: KB cells
Description: The ability of the alpha and gamma isomers of ^99mTc-oxa-folate to bind to KB cells was studied at 4° C. KB cells (˜5×10^5 cells/well) were seeded into 35-mm wells and incubated for 48 hours as described in example 17 above. The alpha and gamma isomers of ^99mTc-oxa-folate, were prepared and purified as described in examples 14 and 16. The cells were then cooled to 4° C. for 30 min and incubated with the following mixtures for 30 min at 4° C.: • 1. 10 pmol of ^3H-folate • 2. 10 pmol of ^3H-folate and 250 pmol of native folate • 3. […] Trace amounts (˜0.5 μCi) of ^99mTc-Oxa-γ-folate • 6. Trace amounts (˜0.5 μCi) of ^99mTc-Oxa-γ-folate and 260 pmol of native folate
(§1) Following the incubation period, the cells were washed 3 times with ice-cold Tris-buffered saline. The cells were then stripped from the plates using 1.0 mL of water. Aliquots of the water/cell mixture were assayed for the respective radioisotopes and for cellular protein (to determine the number of KB cells present in each well). The radioassay data were used to calculate the % of radiolabeled compound bound to the cells in the absence and presence of unlabeled native folate. Data in FIG. 4 are presented as the percentage bound, relative to the % bound in the control wells containing 10 pmol of ^3H-folate.

cell surface FBP = cell surface FBP (Homo sapiens, UniProt P15328); conditions: in the presence of an equimolar amount of conjugate; cited from earlier work
[2] = biological target: T2, folate binding protein on KB cells (Homo sapiens, UniProt P15328); assay: Binding of ^153Gd-DO3A-APA-folate (α or γ isomer) or ^3H folate to KB cells at 37° C. in competition with cold native folate; conditions: 10 pmol labelled compound, 0-900 pmol cold native folate, 30 min, FIG. 1
T2 construct: host or cells: KB cells
Description: (§2) Cell culture: KB cells (a human nasopharyngeal epidermal carcinoma cell line) and JAR cells (a human choriocarcinoma cell line) were obtained from ATCC (American Type Culture Collection). Both cell lines are reported to overexpress transcripts encoding folate binding protein. […] The media for each cell line was supplemented with 10% defined fetal calf serum (HyClone, Inc.) Monolayers were cultured at 37° C. in a humidified atmosphere containing 5% CO2.
(§3) Forty-eight hours prior to each experiment, 5×10^5 cells were seeded into 35 mm culture dishes and allowed to grow for 2 days in folate-depleted media. The cells were then washed with Tris-buffered saline (TBS=150 mM NaCl, 50 mM Tris, pH 7.5) and 1 mL of fresh media containing 10 pmol ^153Gd-DO3A-APA-folate (α or γ isomer) and 0-900 pmol of cold native folate per sample was added. Control experiments were performed using 10 pmol of ^3H folate (Amersham International) and 0-900 pmol of cold native folate. The cells were incubated for 30 min at 37° C. They were then washed three times with ice cold TBS and suspended in one ml of water. Cell associated radioactivity was determined by gamma (^153Gd-folate) or scintillation counting (^3H-folate) of a 500 μl aliquot of this suspension; 100 μl was used in the BCA protein assay (Pierce catalog # 23225), which was used to determine and normalize for cellular protein content.

[3] = biological target: T1, folate binding protein on the KB cells; assay: Binding of ^3H-folate and alpha or gamma isomer of ^153Gd-DO3A-APA-folate to KB cells at 4° C. with and without excess folate; conditions: 30 min
Description: In a second experiment, the ability of the alpha and gamma isomers of ^153Gd-DO3A-APA-folate to bind to KB cells at 4° C. was studied. KB cells (˜5×10^5 cells/well) were seeded into 35-mm wells and incubated for 48 hours as described above. The cells were then cooled to 4° C. for 30 min and incubated with the following mixtures for 30 min at 4° C.: • 1. 10 pmol of ^3H-folate • 2. 10 pmol of ^3H-folate and 250 pmol of native folate • 3. 10 pmol of ^153Gd/Gd(DO3A-APA-α-folate) • 4. 10 pmol of ^153Gd/Gd(DO3A-APA-α-folate) and 250 pmol of native folate • 5. 10 pmol of ^153Gd/Gd(DO3A-APA-γ-folate) • 6. 10 pmol of ^153Gd/Gd(DO3A-APA-γ-folate) and 250 pmol of native folate
as §1, with “ice-old” for “ice-cold”, “2” for “4”

JAR cells [4] = biological target: T3, JAR cells (Homo sapiens, UniProt P15328); assay: Binding of ^153Gd-folates or ^3H folate to JAR cells at 37° C.
T3 construct: host or cells: JAR cells
Description: as §2, §3

KB cells = assay: In vitro exchange study with cold native folate in the medium, KB cells; assay type: cell-based, human; conditions: 24 hours, 37° C., medium with cold native folate (250 nM), FIG. 4A
Description: (§4) Exchange studies were performed to examine the effect of native folate on the radioactivity levels in KB or JAR cells that had been pre-loaded with a saturating level of radiolabeled Gd-folates or native folate in vitro. ^3H-folate, ^153Gd-DO3A-APA-(γ)-folate or ^153Gd-DO3A-APA-(α)-folate (250 pmol) was incubated with KB or JAR cells as described in Example 18. At the end of the 30-min incubation period, these ^153Gd-folate or ^3H-folate-loaded cells were washed five times with ice-cold media containing 250 nM cold, native folate and were then incubated at 37° C. for 24 hours with media that contained 250 pmol of cold folate. At predetermined intervals during this time, the incubation medium was removed and replaced with fresh medium at 37° C. The radioactivity present in each aliquot of the incubation medium was used to determine the rate at which radioactivity from the ^3H-folate, ^153Gd-DO3A-APA-(γ)-folate or ^153Gd-DO3A-APA-(α)-folate washed out of the cells. At the end of the study, the cells were suspended in one ml of water and assayed for radioactivity and protein content.

JAR cells [5] = biological target: T3, JAR cells; assay: In vitro exchange study with cold native folate in the medium, JAR cells; assay type: cell-based
Description: as §4

T1 sequence (P15328 25-234): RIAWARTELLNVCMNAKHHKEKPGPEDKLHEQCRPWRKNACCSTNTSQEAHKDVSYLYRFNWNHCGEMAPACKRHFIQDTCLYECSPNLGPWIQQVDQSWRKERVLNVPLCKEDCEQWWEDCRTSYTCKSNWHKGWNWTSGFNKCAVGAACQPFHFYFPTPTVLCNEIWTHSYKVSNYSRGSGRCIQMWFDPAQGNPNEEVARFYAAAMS
T3 sequence (P15328 25-234): as above
Chain of cell surface FBP (P15328 25-234): as above
T2 sequence (P15328 25-234): as above

Nc1nc2ncc(CNc3ccc(C(=O)N[C@@H](CCC(=O)O)C(=O)O)cc3)nc2c(=O)[nH]1 [folic acid]
binding by MA104 cells (MA104 cells): 1-2 pmol folic acid/10^6 cells

Bis(^153Gd-DO3A-APA)-folate
Tumor % ID/g (JAR tumors): 1.48 (0.12) % ID/g
[Gd] in tumor tissue (JAR tumors; calculated from % ID/g): 55 (4) μM

99m-Technetium complex of 12-(N-Pteroyl-γ-L-glutamyl)-3,3,9,9-tetramethyl-5-oxa-4,8-diaza-2,10-dodecanedione dioxime [^99mTc-Oxa-γ-folate]
competition with native folate for folate binding protein on KB cells [1]: do compete for folate binding protein on the KB cells
binding to KB cells relative to that observed with 10 pmol of ^3H-folate [1]: to the same extent

CC(=O)N(O)CCCCCNC(=O)CCC(=O)N(O)CCCCCNC(=O)CCC(=O)N(O)CCCCCNC(=O)C(CCC(=O)O)NC(=O)c1ccc(NCc2cnc3nc(N)[nH]c(=O)c3n2)cc1 (single isomer, unassigned) [DF-folate (α) isomer]
decrease in bound ^3H folic acid (cell surface FBP): no ability to compete

99m-Technetium complex of 12-(N-Pteroyl-α-L-glutamyl)-3,3,9,9-tetramethyl-5-oxa-4,8-diaza-2,10-dodecanedione dioxime [^99mTc-Oxa-α-folate]
competition with native folate for folate binding protein on KB cells [1]: do compete for folate binding protein on the KB cells
binding to KB cells relative to that observed with 10 pmol of ^3H-folate [1]: 140%

^153Gd-DO3A-APA-(γ)-folate
amount bound to the KB cells [2]: No significant differences
competition with native folate for folate binding protein on KB cells ([3]; 10 pmol plus 250 pmol cold native folate, 4° C. (FIG. 2, white bars)): do compete for folate binding protein on the KB cells
binding to KB cells compared with 10 pmol of ^3H-folate ([3]; 10 pmol, 4° C., no cold folate (FIG. 2, dark bars)): to the same extent
ability to compete with cold native folate for binding to the JAR cells (JAR cells [4]; 10 pmol, 0-900 pmol cold folate, 30 min, 37° C.): equally effective
binding to JAR cells compared with the radiolabeled control (^3H-folate) (JAR cells [4]; comparable test conditions, FIG. 1A): about half as effective

CC(C)(C)OC(=O)NCCCC(CCCNC(=O)OC(C)(C)C)(CCCNC(=O)OC(C)(C)C)NC(=O)CCC(=O)NC(CCC(=O)OCc1ccccc1)(CCC(=O)OCc1ccccc1)CCC(=O)OCc1ccccc1 [Example 11, N-[1,5-Bis(benzyloxycarbonyl)-3-[2-(benzyloxycarbony)ethyl)]-3-pentyl]-N′-[1,7-bis-(t-butoxycarbony)amino-[4-(3-(t-butyloxycarbonyl)propyl]-4-heptyl]butanedioic diamide]
melting point: 95 to 96 °C

Gd-DO3A-APA-(γ)-folate
radioactivity lost from loaded KB cells to the incubation medium (KB cells): 20%
radioactivity from loaded JAR cells found in the medium (JAR cells [5]; after 6 hours, 37° C., medium with cold native folate, FIG. 4B): 30%
amount of compound washed from the JAR cells (JAR cells [5]; at 24 hours): similar

CC(=O)N(O)CCCCCNC(=O)CCC(=O)N(O)CCCCCNC(=O)CCC(=O)N(O)CCCCCNC(=O)CCC(NC(=O)c1ccc(NCc2cnc3nc(N)[nH]c(=O)c3n2)cc1)C(=O)O (stereo not drawn) [DF-folate (γ) conjugate]
decrease in bound ^3H folic acid (cell surface FBP): 50%
